{
  "source": "patent US4889871A",
  "about": "“Alkoxy-substituted dihydrobenzopyran-2-carboxylate derivatives” (G. D. Searle & Co., priority 1988, dated 1989)",
  "key": {"human neutrophils [1]": {"test_system": "human neutrophils", "experiment": "Modified Boyden chamber chemotaxis (LTB4, human neutrophils)", "format": "cell-based", "settings": "Neutrophil", "procedure": "Human neutrophils were isolated from citrated peripheral blood using standard techniques of dextran sedimentation, followed by centrifugation on Histopaque® sterile solution (Sigma) or Ficoll-paque® (Pharmacia) and hypotonic lysis of erythrocytes. A final cell suspension of 3.4×10^6 neutrophils/ml of HEPES-buffered Hanks balanced salt solution (HBSS, pH 7.3) was added to the upper well (0.8 ml) of a modified Boyden chamber (blind well). The lower well (0.2 ml), separated by a polycarbonate membrane (Nuleopore Corp.), contained HBSS or 3×10^-8 M LTB4 in the presence of absence of test compound. Following a 90 minute incubation at 37° C. in 5% CO2 -95% air, cells from the lower well were lysed and nuclei counted in a Model S-Plus-IV Coulter Counter. Percent inhibition was calculated from cell counts corrected for random migration by subtracting the mean of the HBSS control."}, "human neutrophils [2]": {"test_system": "human neutrophils", "experiment": "Human neutrophil degranulation assay (LTB4-induced, myeloperoxidase release)", "format": "cell-based", "settings": "Table 1, LTB4 (5×10^-8 M)", "procedure": "Neutrophils were purified from venous blood of normal human donors using standard techniques of dextran sedimentation, centrifugation on Ficoll-paque® (Pharmacia) or Histopaque® sterile solution (Sigma) and hypotonic lysis of erythrocytes (Boyum, A., Isolation of Leukocytes From Human Blood: Further Observations. Scand. J. Lab. Clin. Invest., 21 (Suppl. 97): 31, 1968). The purity of isolated neutrophils was >95%.\nNeutrophil degranulation was determined by measuring the release of myeloperoxidase activity into the incubation medium. Neutrophils (3×10^6) in 1 ml HBSS solution were preincubated with cytochalasin B (5 μg) at 37° C. for 5 minutes, followed by preincubation with test compounds for 7 minutes. Neutrophils were then incubated for 2 to 20 minutes with either LTB4 (5×10^-8 M) or the chemotactic peptide f-met-leu-phe (5×10^-6 M) to induce degranulation. Following incubation, samples were centrifuged and myeloperoxidase was extracted from the cell pellets by sonication in phosphate buffer containing 0.4% Triton X-100. Triton X-100 was also added to the supernatants to a concentration of 0.4%. The supernatants and the pellet - extracts were then assayed spectrophotometrically for myeloperoxidase activity by determining the rate of decomposition of H2 O2 with o-dianisidine as hydrogen donor as described by Renlund, et al. (Renlund, D. G., MacFarlane, J. L., Christensen, R. D., Lynch, R. E., and Rothstein, G., A Quantitative And Sensitive Method For Measurement Of Myeloperoxidase, Clinical Research 28:75A, 1980). Myeloperoxidase activity released into the supernatant was expressed as the percent of the average total activity (pellet plus supernatant)."}, "LTB4 receptor": {"target": "T1, LTB4 receptor (Homo sapiens, UniProt Q15722)", "T1 construct": "Neutrophils were purified from venous blood of normal human donors; endogenous in cells; host or cells: purified human blood neutrophils (intact cells)", "T1 sequence (Q15722 whole entry)": "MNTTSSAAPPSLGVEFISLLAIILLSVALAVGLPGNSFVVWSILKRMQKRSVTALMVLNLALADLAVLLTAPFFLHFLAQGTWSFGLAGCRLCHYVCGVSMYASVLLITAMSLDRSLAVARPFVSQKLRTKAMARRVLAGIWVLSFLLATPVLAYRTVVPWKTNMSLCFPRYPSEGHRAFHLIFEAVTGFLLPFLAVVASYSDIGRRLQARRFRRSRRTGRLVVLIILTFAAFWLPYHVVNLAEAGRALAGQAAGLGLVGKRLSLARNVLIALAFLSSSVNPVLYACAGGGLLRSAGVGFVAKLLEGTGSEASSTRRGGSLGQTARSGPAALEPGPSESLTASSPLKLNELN", "experiment": "LTB4 receptor binding assay ((3H) LTB4, human neutrophils)", "procedure": "Neutrophils (4-6×10^6) in 1 ml Hanks' balanced salt solution containing 10 mM HEPES buffer (HBSS), pH 7.4 and 30 μM nordihydroguaiaretic acid were incubated with 0.6×10^-9 M (^3 H) LTB4 in the presence or absence of test compounds. The incubation was carried out at 0° C. for 45 minutes and terminated by adding 5 ml of ice-cold HBSS followed by rapid filtration of incubation mixture under vacuum through GF/C glass fiber filters. The filters were further washed with 10 ml HBSS and radioactivity was determined. Specific binding was defined as the difference between total binding and nonspecific binding which was not displaced by 10^-7 M unlabeled LTB4. All data refer to specific binding."}},
  "data": [
    {"smiles": "CCCc1c(OCCCOc2ccc(C(C)=O)c(OC)c2CCC)ccc2c1OC(C(=O)O)CC2", "note": "(stereo not shown) [Example 1, 7-[3-(4-acetyl-3-methoxy-2-propylphenoxy)propoxy]-3,4-dihydro-8-propyl-2H-1-benzopyran-2-carboxylic acid]", "values": [
      {"measurement": "IC50", "setting": "human neutrophils [1]", "value": 3000, "unit": "nM"},
      {"measurement": "IC50", "setting": "human neutrophils [2]", "value": 1500, "unit": "nM"},
      {"measurement": "inhibition at 0.3 µM", "setting": "LTB4 receptor; 0.75 h, read-out: LTB4 Receptor Binding (percent at stated concentration)", "value": 50, "unit": "%"},
      {"measurement": "more potent than the --OH compound in LTB4 receptor binding", "setting": "LTB4 receptor; relative to Compound III where --OCH3 is replaced with --OH", "value": "about 5 ×"}
    ]}
  ]
}
